For assay [1], the system named is mouse myeloma cell line [GS-NSO]. In words: Growth of GS-NSO myeloma cells in protein-free LS1 medium, shake flasks. The assay is classed as cell-based. The note with it: 5 μM tropolone, FIG. 5. The method, then: The LS1 medium additionally contained 2-hydroxypropyl-β-cyclodextrin [HPB; 1.2 g/l] complexed with cholesterol and fatty acids [prepared before addition to LS1 by dissolving HPB ([…]) in water and adding to an equal volume of a supplement containing cholesterol and the fatty acids previously dissolved in absolute alcohol, then agitating for 3 hours prior to centrifugation and filtering].

In assay [2] the test system is mouse hybridoma cell line. Kind of assay: Growth of mouse hybridoma cells in transferrin-free medium with iron chelators, static 24-well culture, 3 days. The assay is classed as cell-based. The method, then:
A mouse hybridoma cell line previously subcultured in a serum-free medium containing 1 μg/ml human transferrin was centrifuged and resuspended in transferrin-free medium twice. […] 100×concentrates of the iron chelators to be tested (8-hydroxyquinoline, tropolone, mimosine, maltol or picolinic acid) were prepared in water and filter sterilised. 10 μl of each iron chelator was dispersed into wells of a 24 well costar plate and then 1 ml of cell suspension added. […] Control wells contained either 10 μl water (negative control) or 10 μl of 100 μg/ml human transferrin solution (positive control). Plates were incubated for 3 days in a humidified incubator under a 5% CO2—95% air atmosphere at 36.5° C. under static conditions. After 3 days samples of dispersed cell suspensions from individual wells were analysed using a Coulter Multisizer to determine cell concentration.

For the next assay, the system named is animal cells. In words: Support of growth in agitated animal cell culture at low iron concentration. The format is cell-based.
For assay [3], the system named is recombinant GS-myeloma cell lines [mouse NS/O]. In words: Growth and productivity of recombinant GS-myeloma NS/O cell lines in suspension culture. The assay is classed as cell-based. The note with it: for PEAK CELL DENSITY: 0.2 mg/l ferric ammonium citrate with 5 μM tropolone or 1 mg/l transferrin. From the text:
The efficacy of using tropolone as a transferrin replacement was further investigated using recombinant GS-myeloma cell lines [mouse NS/O] expressing humanised antibodies using the glutamine synthetase (GS) expression system, [Bebbington et al., Bio/Technology, 10, 169-175; European Patent Specification No. 256055].

For assay [4], the system named is mouse hybridoma cell line. The note with it: increasing concentrations up to 10 mg/l, transferrin-free medium, 3 days, FIG. 2A. The procedure: A mouse hybridoma cell line, previously subcultured in serum free medium containing human transferrin, was centrifuged and resuspended at 1.5×10^5 cells/ml in either transferrin-free or transferrin-containing serum-free medium. […] The flasks were gassed in 5% CO2—95% air atmosphere, sealed and incubated either static or on an orbital reciprocal shaking platform (120 rpm) at 36.5° C. for 3 days. Samples were then removed and cell concentration was determined by haemocytometry.

In assay [5] the test system is mouse hybridoma cell line. To be noted: 5 μM tropolone. The method, then:
Flasks were gassed with an atmosphere of 5% CO2—95% air and incubated on an orbital shaking platform (120 rpm) at 36.5° C. for 3 days.
After 3 days samples were withdrawn from flasks and cell concentration determined using a Coulter multisizer.

[6] abbreviates: 5 μM tropolone vs 1 mg/l transferrin, 0.2 mg/l ferric ammonium citrate, three cell lines.

For “2-hydroxypropyl-β-cyclodextrin [reference compound]”, in assay [1] (1.2 g/l HPB in LS1 medium vs bovine serum albumin), the “performance as carrier for cholesterol and fatty acids (cell growth)” value is reported as “an effective replacement for bovine serum albumin”.

For the compound `CC(=O)CC(C)=O` [acetylacetone, reference compound], the “support of cell growth (cell concentration after 3 days)” value in assay [2] (100 μM, 0.1 mg/l ferric ammonium citrate, FIG. 1B) is listed as “much less effective”.

Regarding `O=C(O)CC(O)(CC(=O)O)C(=O)O` [citrate], in the assay with animal cells, the “support of growth in agitated cell culture” value (“support of growth” for short) is “has failed”.

On to `O=C(O)[C@H](O)[C@@H](O)[C@H](O)[C@H](O)CO` [gluconate], for which the “support of growth” value in the assay with animal cells was “has failed”.

In the case of `O=C(O)c1ccccn1` [picolinic acid, reference compound], the “support of cell growth (cell concentration after 3 days)” value in assay [2] (50 μM, 0.1 mg/l ferric ammonium citrate, FIG. 1B) is “much less effective”.

`O=c1cccccc1O` [tropolone, 2-hydroxy-2,4,6-cycloheptatrien-1-one]: the “support of cell growth (cell concentration after 3 days)” value is “as effective as 1 μg/ml of human transferrin at supporting cell growth” in assay [2] (3 μM tropolone, 0.36 μM iron (0.1 mg/l ferric ammonium citrate), transferrin-free, FIG. 1A) and “effective at supporting cell growth” in assay [2] (5 μM, 0.1 mg/l ferric ammonium citrate, FIG. 1B). Moreover, the “growth rates compared with transferrin medium” value in assay [3] (setting [6]) is “similar”. Also, the “peak viable cell concentration compared with transferrin medium” value in assay [3] (setting [6]) is listed as “similar”. In addition, the entries for the “PEAK CELL DENSITY” value in assay [3] (Cell line A), in assay [3] (Cell line B) and in assay [3] (Cell line C) were 1.51e+06 mL⁻¹, 1.49e+06 mL⁻¹ and 3.17e+06 mL⁻¹, respectively. Further, in assay [1] (0.2 mg/l ferric ammonium citrate, LS1 medium with HPB or BSA carrier), the “support of cell growth” value is recorded as “able to support the growth of both cultures”. The “support of growth” value in the assay with animal cells is “can support growth”.

As to “TRANSFERRIN: human transferrin, natural iron-chelating protein used as positive control”, the “PEAK CELL DENSITY” value in assay [3] (Cell line A) came to 1.3e+06 mL⁻¹; in assay [3] (Cell line B) it was 1.46e+06 mL⁻¹; in assay [3] (Cell line C), 2.62e+06 mL⁻¹.

Turning to ferric ammonium citrate, in assay [4], the “effect on cell concentration in static culture” value is “support increasing cell concentrations”. In addition, the growth yield in assay [5] (data not shown) was 3.3×10^7 cells/μg ferric ammonium citrate. The “concentration range giving maximum biomass” value in assay [5] (shaken 120 rpm, 3 days) fell in the range of 0.075 to 1 mg/L. In addition, the “time to death of myeloma cells (failed to thrive)” value in assay [3] (0.2 mg/l ferric ammonium citrate in the absence of either tropolone or transferrin) is no more than 48 h.
